Our source for the IC50 values is patent US20240101576A1, “HETEROCYCLIC INHIBITORS OF EGFR AND/OR HER2, FOR USE IN THE TREATMENT OF CANCER” (Scorpion Therapeutics, Inc., priority 2020, published 2024).

What all share (format): cell-based
Assay [1] has as its target T1, EGFR exon 20 ASV Ins V769_D770 (Ba/F3 cells) (Homo sapiens, UniProt P00533, INS769ASV).
T1 construct: expressed in transfected cells; host or cells: Ba/F3 (murine pro-B cells), retroviral transduction, puromycin selection, IL3-independent pool
The experiment in a line: Inhibitor activity on EGFR-dependent cell growth (CellTiter-Glo, 72 h), Ba/F3 EGFR exon 20 ASV Ins. To be noted: read-out: BaF3 ASV IC50. Put shortly:
(§1)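 IC50s derive from a sigmoidal dose–response fit of CellTiter-Glo signal. The signal was normalised between […]-treated cells and cell-free medium. Ba/F3 mutant-EGFR cells, seeded at 400–800/well depending on the line, had 72 h of exposure to a 10-point, 3-fold compound series.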
(ATP-based viability assays read luminescence as a measure of living cells.)

Assay [2] deals with T2, EGFR exon 20 NPG Ins D770_N771 (Ba/F3 cells) (Homo sapiens, UniProt P00533, INS770NPG).
T2 construct: expressed in transfected cells; host or cells: Ba/F3 (murine pro-B cells), retroviral transduction, puromycin selection, IL3-independent pool
Kind of assay: Inhibitor activity on EGFR phosphorylation (pEGFR AlphaLISA, 2 h), Ba/F3 EGFR exon 20 NPG Ins. From the text: Example B. Inhibitor Activity on EGFR phosphorylation (pEGFR)
EGFR mutant Ba/F3 cells were generated by transduction with retrovirus containing vectors expressing EGFR L858R, EGFR exon 19del, EGFR L858R/C797S, EGFR exon 20 NPG Ins D770_N771, EGFR exon 20 ASV Ins V769_D770, or EGFR exon 20 SVD Ins D770_N771 genes along with a puromycin selection marker. Transduced cells are selected with puromycin for 7 days and are then be transferred into culture media without Interleukin 3 (IL3). Surviving cells are confirmed to express EGFR by Western blot and maintained as a pool. CUTO14 cells were obtained from Dr. Robert C. Doebele at the University of Colorado. The IC50 date are included in Table 6 and Table 7.
1.1 Cells are harvested from flask into cell culture medium and the cell number counted.
1.2 Cells are diluted with culture medium to the desired density and 40 μL of cell suspension is added into each well of 384-well cell culture plate and the seeding density is 50K cells/well (Ba/F3) or 12.5K cells/well (CUTO14).
2 Compound Preparation and Treatment
2.1 Test compounds are dissolved to 10 mM in a DMSO stock solution. 45 μL of stock solution is transferred to a 384 polypropylene plate (pp-plate). Perform 3-fold, 10-point dilution via transferring 15 μL compound into 30 μL DMSO using a TECAN (EVO200) liquid handler.
2.2 Spin plates at room temperature at 1,000 RPM for 1 minute.
2.3 Transfer 5 nL of diluted compound from compound source plate into the cell plate.
2.4 After compound treatment for 2 hours, perform pEGFR detection by AlphaLISA for compound treatment plates as described in “Detection” section.
3 Detection by pEGFR AlphaLISA (Perkin-Elmer)
3.1 Plates are removed from incubators and equilibrated at room temperature for 10 minutes, and media was removed
3.2 10 μL of lysis buffer is added and plates shaken at 600 rpm for 1 hr.
3.3 Prepare acceptor mix just before use and dispense 5 μL of acceptor mix to all the wells. Shake 350 rpm for Ihr in the dark
3.4 Prepare donor mix under low light conditions prior to use. Dispense 5 μL of donor mix to all the wells. Mix well on the shaker, seal and wrap in aluminum foil and incubate 1.5 hrs at room temperature in the dark
3.5 Transfer 18.5 μL mixture to OptiPlate 384, and read using an Envision. The IC50 date were included in Table 6 and Table 7.
For orientation: Alpha assays give light when donor and acceptor beads are brought close together.

Assay [3] has as its target T2, EGFR exon 20 NPG Ins D770_N771 (Ba/F3 cells). The experiment in a line: Inhibitor activity on EGFR-dependent cell growth (CellTiter-Glo, 72 h), Ba/F3 EGFR exon 20 NPG Ins. To be noted: read-out: BaF3 NPG IC50. The method, boiled down: as §1
The target of assay [4] is T3, EGFR exon 20 SVD Ins D770_N771 (Ba/F3 cells) (Homo sapiens, UniProt P00533, INS770SVD).
T3 construct: expressed in transfected cells; host or cells: Ba/F3 (murine pro-B cells), retroviral transduction, puromycin selection, IL3-independent pool
Kind of assay: Inhibitor activity on EGFR-dependent cell growth (CellTiter-Glo, 72 h), Ba/F3 EGFR exon 20 SVD Ins. The following applies: read-out: BaF3 SVD IC50. Put shortly: as §1

For assay [5], the target named is T1, EGFR exon 20 ASV Ins V769_D770 (Ba/F3 cells). Kind of assay: Inhibitor activity on EGFR phosphorylation (pEGFR AlphaLISA, 2 h), Ba/F3 EGFR exon 20 ASV Ins. To be noted: EGFR phosphorylation, AlphaLISA, 2 hours; read-out: ASV IC50 (pEGFR). Put shortly:
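IL3-independent Ba/F3 cells transduced with mutant EGFR (50K/well) or CUTO14 cells (12.5K/well) were treated 2 h with 10-point, 3-fold compound dilutions. Phospho-EGFR in lysates was measured by AlphaLISA to derive IC50.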

A further assay addresses T4, EGFR WT (Ba/F3 cells) (Homo sapiens, UniProt P00533).
T4 construct: expressed in transfected cells; host or cells: Ba/F3 (murine pro-B cells), retroviral transduction, puromycin selection, maintained with EGF
The experiment in a line: Inhibitor activity on EGFR-dependent cell growth (CellTiter-Glo, 72 h), Ba/F3 EGFR WT. The following applies: read-out: BaF3 WT IC50. The method, boiled down:
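This growth assay used Ba/F3 cells that depend on wild-type EGFR and are kept in EGF without IL3. Compounds were made up as 10 mM DMSO stocks and diluted 3-fold over 10 points. 120 nL went onto 600 cells/well. After 72 hours, 40 μL CellTiter-Glo was added and luminescence read on EnVision after 30 min.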

Assay [6] addresses T5, EGFR exon 20 FQEA Ins A763_V764 (Ba/F3 cells) (Homo sapiens, UniProt P00533, INS763FQEA).
T5 construct: expressed in transfected cells; host or cells: Ba/F3 (murine pro-B cells), retroviral transduction, puromycin selection, IL3-independent pool
Kind of assay: Inhibitor activity on EGFR-dependent cell growth (CellTiter-Glo, 72 h), Ba/F3 EGFR exon 20 FQEA Ins. To be noted: read-out: BaF3 FQEA IC50. The method, boiled down: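 Ba/F3 cells engineered with each EGFR variant were plated (400, 600 or 800 per well for L858R, L858R/C797S, and exon 19del/FQEA). They were exposed for 72 hours to compound serially diluted from a 10 mM DMSO stock. Remaining viable cells were quantified by CellTiter-Glo, and IC50 was curve-fitted.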

Molecules are shown by their SMILES. pIC50: −log10 of the molar value. Bounds are passed on as bounds.

T5 sequence (P00533 with tags, fused parts or gaps INS763FQEA): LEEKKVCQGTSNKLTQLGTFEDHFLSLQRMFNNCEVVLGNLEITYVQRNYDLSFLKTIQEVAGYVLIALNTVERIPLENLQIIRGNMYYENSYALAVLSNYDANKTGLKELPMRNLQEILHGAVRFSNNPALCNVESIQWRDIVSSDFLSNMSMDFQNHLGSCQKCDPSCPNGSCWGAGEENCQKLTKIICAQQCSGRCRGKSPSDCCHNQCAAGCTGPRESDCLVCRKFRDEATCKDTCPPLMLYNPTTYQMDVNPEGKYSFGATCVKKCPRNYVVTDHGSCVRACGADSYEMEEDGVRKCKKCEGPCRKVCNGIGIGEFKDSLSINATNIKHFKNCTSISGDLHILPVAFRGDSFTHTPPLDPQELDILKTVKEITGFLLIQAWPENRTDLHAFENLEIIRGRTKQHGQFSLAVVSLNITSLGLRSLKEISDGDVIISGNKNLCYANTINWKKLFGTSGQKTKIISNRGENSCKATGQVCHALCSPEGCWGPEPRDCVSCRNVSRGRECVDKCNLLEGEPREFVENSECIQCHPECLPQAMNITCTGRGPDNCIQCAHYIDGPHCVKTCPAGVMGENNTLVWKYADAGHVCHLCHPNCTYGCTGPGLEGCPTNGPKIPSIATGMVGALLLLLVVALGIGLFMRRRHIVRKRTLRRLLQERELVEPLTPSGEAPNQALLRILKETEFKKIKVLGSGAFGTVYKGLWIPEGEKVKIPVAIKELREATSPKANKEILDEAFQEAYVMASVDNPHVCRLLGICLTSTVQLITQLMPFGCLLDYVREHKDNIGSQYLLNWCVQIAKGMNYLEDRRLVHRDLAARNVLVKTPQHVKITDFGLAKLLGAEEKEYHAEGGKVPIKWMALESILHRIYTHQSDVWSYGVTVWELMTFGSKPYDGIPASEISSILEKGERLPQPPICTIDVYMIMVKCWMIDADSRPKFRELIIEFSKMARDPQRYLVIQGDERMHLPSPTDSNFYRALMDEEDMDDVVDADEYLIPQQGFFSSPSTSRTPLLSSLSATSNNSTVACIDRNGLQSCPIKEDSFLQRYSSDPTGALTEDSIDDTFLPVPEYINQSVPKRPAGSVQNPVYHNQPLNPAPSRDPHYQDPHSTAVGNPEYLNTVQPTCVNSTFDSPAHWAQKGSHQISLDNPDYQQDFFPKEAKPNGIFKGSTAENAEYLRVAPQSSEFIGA
T3 sequence (P00533 with tags, fused parts or gaps INS770SVD): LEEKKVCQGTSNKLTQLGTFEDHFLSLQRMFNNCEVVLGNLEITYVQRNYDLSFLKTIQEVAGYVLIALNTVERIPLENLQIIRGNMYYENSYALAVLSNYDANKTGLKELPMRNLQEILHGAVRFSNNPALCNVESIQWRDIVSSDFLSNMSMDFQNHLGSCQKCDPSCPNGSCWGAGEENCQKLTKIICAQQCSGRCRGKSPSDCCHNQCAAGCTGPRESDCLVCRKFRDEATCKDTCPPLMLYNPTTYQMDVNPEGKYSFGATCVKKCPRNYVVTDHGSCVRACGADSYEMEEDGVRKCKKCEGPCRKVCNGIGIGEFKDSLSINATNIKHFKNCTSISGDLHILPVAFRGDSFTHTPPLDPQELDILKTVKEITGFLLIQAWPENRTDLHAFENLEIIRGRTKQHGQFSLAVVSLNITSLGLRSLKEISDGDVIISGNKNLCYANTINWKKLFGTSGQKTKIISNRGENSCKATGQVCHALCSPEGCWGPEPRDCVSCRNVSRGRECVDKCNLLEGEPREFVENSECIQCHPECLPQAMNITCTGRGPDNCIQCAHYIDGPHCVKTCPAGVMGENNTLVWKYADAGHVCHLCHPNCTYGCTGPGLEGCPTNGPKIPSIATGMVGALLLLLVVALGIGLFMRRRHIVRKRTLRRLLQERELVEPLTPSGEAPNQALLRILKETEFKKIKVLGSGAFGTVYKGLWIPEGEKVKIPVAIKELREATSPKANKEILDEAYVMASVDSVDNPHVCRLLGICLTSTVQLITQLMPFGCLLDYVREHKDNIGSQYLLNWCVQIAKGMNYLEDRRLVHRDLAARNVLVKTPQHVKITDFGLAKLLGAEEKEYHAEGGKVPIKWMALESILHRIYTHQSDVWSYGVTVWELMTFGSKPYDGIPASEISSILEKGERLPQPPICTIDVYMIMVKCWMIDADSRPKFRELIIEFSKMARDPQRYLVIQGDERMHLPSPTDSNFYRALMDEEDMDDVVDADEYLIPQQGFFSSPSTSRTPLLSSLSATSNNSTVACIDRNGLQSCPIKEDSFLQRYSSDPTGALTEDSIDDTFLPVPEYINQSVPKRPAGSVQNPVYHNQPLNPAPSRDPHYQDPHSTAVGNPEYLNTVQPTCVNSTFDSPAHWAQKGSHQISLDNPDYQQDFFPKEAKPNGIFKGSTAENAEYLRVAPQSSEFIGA
T1 sequence (P00533 with tags, fused parts or gaps INS769ASV): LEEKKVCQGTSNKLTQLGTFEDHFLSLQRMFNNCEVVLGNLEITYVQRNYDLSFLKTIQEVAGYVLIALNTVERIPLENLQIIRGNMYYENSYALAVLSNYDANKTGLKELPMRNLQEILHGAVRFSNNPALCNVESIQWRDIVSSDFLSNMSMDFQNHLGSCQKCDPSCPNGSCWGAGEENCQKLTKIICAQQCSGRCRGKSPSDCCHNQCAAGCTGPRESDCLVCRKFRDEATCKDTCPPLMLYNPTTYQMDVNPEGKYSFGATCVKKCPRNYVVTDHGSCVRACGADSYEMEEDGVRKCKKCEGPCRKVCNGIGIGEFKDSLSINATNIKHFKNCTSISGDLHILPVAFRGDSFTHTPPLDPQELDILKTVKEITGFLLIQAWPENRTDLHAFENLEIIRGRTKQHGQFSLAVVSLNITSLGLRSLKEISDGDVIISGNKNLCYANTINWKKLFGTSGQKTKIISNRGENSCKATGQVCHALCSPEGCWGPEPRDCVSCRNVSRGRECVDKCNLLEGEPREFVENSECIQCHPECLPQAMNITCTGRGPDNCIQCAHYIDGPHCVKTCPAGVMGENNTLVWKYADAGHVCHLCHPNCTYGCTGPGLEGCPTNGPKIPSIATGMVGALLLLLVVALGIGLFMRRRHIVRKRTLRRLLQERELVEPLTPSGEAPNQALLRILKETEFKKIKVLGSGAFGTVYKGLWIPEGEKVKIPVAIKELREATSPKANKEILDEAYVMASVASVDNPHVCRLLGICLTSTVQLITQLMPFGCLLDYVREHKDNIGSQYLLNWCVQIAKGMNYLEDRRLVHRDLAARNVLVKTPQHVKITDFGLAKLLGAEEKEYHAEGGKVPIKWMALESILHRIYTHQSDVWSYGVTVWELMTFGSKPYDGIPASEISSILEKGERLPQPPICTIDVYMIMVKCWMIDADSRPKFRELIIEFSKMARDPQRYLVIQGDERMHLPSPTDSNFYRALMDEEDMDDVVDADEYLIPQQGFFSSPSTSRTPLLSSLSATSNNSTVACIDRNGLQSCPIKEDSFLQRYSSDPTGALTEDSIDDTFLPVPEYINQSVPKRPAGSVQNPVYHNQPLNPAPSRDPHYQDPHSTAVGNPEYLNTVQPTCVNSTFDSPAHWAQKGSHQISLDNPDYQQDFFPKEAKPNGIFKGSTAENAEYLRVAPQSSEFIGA
T2 sequence (P00533 with tags, fused parts or gaps INS770NPG): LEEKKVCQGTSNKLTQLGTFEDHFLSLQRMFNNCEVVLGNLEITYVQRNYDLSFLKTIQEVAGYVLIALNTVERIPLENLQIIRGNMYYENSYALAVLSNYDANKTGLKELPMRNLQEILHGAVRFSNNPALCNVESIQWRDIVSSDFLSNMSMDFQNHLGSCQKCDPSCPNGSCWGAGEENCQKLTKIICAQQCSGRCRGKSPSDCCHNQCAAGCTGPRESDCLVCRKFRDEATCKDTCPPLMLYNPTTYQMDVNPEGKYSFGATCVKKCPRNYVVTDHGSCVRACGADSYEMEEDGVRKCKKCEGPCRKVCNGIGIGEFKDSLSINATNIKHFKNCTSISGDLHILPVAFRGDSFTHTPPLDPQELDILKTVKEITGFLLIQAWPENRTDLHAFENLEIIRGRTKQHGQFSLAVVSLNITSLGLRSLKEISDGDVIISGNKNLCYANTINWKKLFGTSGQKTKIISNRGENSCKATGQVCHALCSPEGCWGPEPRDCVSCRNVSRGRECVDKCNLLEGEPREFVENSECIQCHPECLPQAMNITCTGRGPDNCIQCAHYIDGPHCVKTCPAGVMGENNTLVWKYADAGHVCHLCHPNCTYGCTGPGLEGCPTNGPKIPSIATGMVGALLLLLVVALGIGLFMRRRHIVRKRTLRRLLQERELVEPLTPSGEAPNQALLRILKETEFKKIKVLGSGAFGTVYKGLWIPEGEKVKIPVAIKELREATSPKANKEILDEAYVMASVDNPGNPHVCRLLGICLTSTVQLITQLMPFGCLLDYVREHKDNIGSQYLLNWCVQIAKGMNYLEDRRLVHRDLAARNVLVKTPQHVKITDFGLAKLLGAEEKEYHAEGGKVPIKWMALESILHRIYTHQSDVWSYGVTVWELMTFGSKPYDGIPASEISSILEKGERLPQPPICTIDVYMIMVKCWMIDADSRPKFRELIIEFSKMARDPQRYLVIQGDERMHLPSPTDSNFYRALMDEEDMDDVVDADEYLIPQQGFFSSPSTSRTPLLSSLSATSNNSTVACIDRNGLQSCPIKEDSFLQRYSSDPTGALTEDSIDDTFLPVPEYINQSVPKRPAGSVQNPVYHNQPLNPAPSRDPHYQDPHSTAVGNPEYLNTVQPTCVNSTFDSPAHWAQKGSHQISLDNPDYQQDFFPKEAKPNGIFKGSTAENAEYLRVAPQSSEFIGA

What is called pIC50 is the negative decadic logarithm of the IC50, by convention in mol/L. Take `COc1c(Cl)cccc1Nc1c(-c2ccnc3c2OCC(=O)N3)[nH]c2c1C(=O)NCC2` [compound 308]: the pIC50 in assay [1] was 6.00 to 7.00; in assay [2] it was above 7.00; in assay [3], 6.00 to 7.00; in assay [4], 6.00 to 7.00; in assay [5] it was above 7.00; at EGFR WT (Ba/F3 cells), below 6.00. In addition, the pIC50 in assay [6] was 6.00 to 7.00.
Consider `COc1c(Cl)cccc1Nc1c(-c2ccnc(N)c2)[nH]c2c1C(=O)NCC2` [compound 285], for which the pIC50 was 6.00 to 7.00 in assay [1]; above 7.00 in assay [2]; 6.00 to 7.00 in assay [3]; 6.00 to 7.00 in assay [4]; above 7.00 in assay [5]; below 6.00 at EGFR WT (Ba/F3 cells). Besides, the pIC50 in assay [6] is 6.00 to 7.00.
With `COc1c(Cl)cccc1Nc1c(-c2ccnc(NC(C)=O)n2)[nH]c2c1C(=O)NCC2` [compound 220], the pIC50 in assay [1] was 6.00 to 7.00; in assay [2], above 7.00; in assay [3], 6.00 to 7.00; in assay [4], 6.00 to 7.00; in assay [5], 6.00 to 7.00; at EGFR WT (Ba/F3 cells), below 6.00. The pIC50 in assay [6] was 6.00 to 7.00.
Turning to `CNc1nccc(-c2[nH]c3c(c2Nc2cccc(F)c2OC)C(=O)NCC3)n1` [Compound 691, 3-[(3-fluoro-2-methoxyphenyl)amino]-2-[2-(methylamino)pyrimidin-4-yl]-1H,5H,6H,7H-pyrrolo[3,2-c]pyridin-4-one], the pIC50 in assay [1] is 6.00 to 7.00; in assay [2] it was above 7.00; in assay [3] it was 6.00 to 7.00; in assay [4], 6.00 to 7.00; in assay [5] it was above 7.00; on EGFR WT (Ba/F3 cells), 6.00 to 7.00. Besides, in assay [6], the pIC50 was 6.00 to 7.00.
As for `COCCOc1ccc2nccc(-c3[nH]c4c(c3Nc3cccc(Cl)c3OC)C(=O)NCC4)c2n1` [compound 678, 3-[(3-chloro-2-methoxyphenyl)amino]-2-[6-(2-methoxyethoxy)-1,5-naphthyridin-4-yl]-1H,5H,6H,7H-pyrrolo[3,2-c]pyridin-4-one], the pIC50 (in assay [1]; in assay [2]; in assay [3]; in assay [4]; in assay [5]; at EGFR WT (Ba/F3 cells)) was above 7.00 in each case. In addition, the pIC50 in assay [6] is above 7.00.
Regarding `COCCNc1ccc2nccc(-c3[nH]c4c(c3Nc3cccc(Cl)c3OC)C(=O)NCC4)c2n1` [Compound 680, 3-[(3-chloro-2-methoxyphenyl)amino]-2-[6-[(2-methoxyethyl)amino]-1,5-naphthyridin-4-yl]-1H,5H,6H,7H-pyrrolo[3,2-c]pyridin-4-one; formic acid], the pIC50 (in assay [1]; in assay [2]; in assay [3]; in assay [4]; in assay [5]; at EGFR WT (Ba/F3 cells)) was above 7.00 each time. The pIC50 in assay [6] was above 7.00.
Consider `COc1c(F)cccc1Nc1c(-c2ccnc(N)c2F)[nH]c2c1C(=O)NCC2` [Compound 687, 2-(2-amino-3-fluoropyridin-4-yl)-3-[(3-fluoro-2-methoxyphenyl)amino]-1H,5H,6H,7H-pyrrolo[3,2-c]pyridin-4-one], for which the pIC50 in assay [1] was 6.00 to 7.00; in assay [2], above 7.00; in assay [3], 6.00 to 7.00; in assay [4], 6.00 to 7.00; in assay [5], 6.00 to 7.00; on EGFR WT (Ba/F3 cells), below 6.00. In assay [6], the pIC50 is 6.00 to 7.00.
Take `COc1c(Cl)cccc1Nc1c(-c2ccnc(NC(=O)C3CC3)n2)[nH]c2c1C(=O)NCC2` [compound 221]: the negative logarithm of the IC50 (pIC50) in assay [1] was 6.00 to 7.00; in assay [2] it was above 7.00; in assay [3] it was 6.00 to 7.00; in assay [4], 6.00 to 7.00; in assay [5], 6.00 to 7.00; on EGFR WT (Ba/F3 cells), below 6.00. For the same molecule, the pIC50 in assay [6] is 6.00 to 7.00.
With `Cc1c(F)cccc1Nc1c(-c2ccnc(N)c2F)[nH]c2c1C(=O)NCC2` [Compound 692, 2-(2-amino-3-fluoropyridin-4-yl)-3-[(3-fluoro-2-methylphenyl)amino]-1H,5H,6H,7H-pyrrolo[3,2-c]pyridin-4-one], the pIC50 is 6.00 to 7.00 in assay [1]; above 7.00 in assay [2]; 6.00 to 7.00 in assay [3]; 6.00 to 7.00 in assay [4]; 6.00 to 7.00 in assay [5]; 6.00 to 7.00 at EGFR WT (Ba/F3 cells). Further, the pIC50 in assay [6] is 6.00 to 7.00.
As for `COc1nccc(-c2[nH]c3c(c2Nc2cccc(Cl)c2OC)C(=O)NCC3)n1` [compound 286], the negative logarithm of the IC50 (pIC50) in assay [1] was below 6.00; in assay [2] it was 6.00 to 7.00; in assay [3], below 6.00; in assay [4] it was below 6.00; in assay [5] it was below 6.00; at EGFR WT (Ba/F3 cells), below 6.00. For the same molecule, the pIC50 in assay [6] is below 6.00.
Consider `COc1c(Cl)cccc1Nc1c(-c2ccnc(Nc3cnn(C)c3)n2)[nH]c2c1C(=O)NCC2` [compound 109], for which the pIC50 (in assay [1]; in assay [2]; in assay [3]; in assay [4]; in assay [5]; at EGFR WT (Ba/F3 cells)) was above 7.00 throughout. Also, in assay [6], the pIC50 is above 7.00.
`Nc1nccc(-c2[nH]c3c(c2Nc2cccc(F)c2F)C(=O)NCC3)n1` [compound 202]: the pIC50 was 6.00 to 7.00 in assay [1]; above 7.00 in assay [2]; 6.00 to 7.00 in assay [3]; 6.00 to 7.00 in assay [4]; above 7.00 in assay [5]; 6.00 to 7.00 on EGFR WT (Ba/F3 cells). The pIC50 in assay [6] was 6.00 to 7.00.
Consider `CNc1nccc(-c2[nH]c3c(c2Nc2cccc(Cl)c2OC)C(=O)NCC3)n1` [compound 108], for which the pIC50 is above 7.00 in assay [1]; above 7.00 in assay [2]; above 7.00 in assay [3]; above 7.00 in assay [4]; above 7.00 in assay [5]; 6.00 to 7.00 on EGFR WT (Ba/F3 cells). The negative logarithm of the IC50 (pIC50) in assay [6] is 6.00 to 7.00.
